Results: PubChem BioAssay (NCI)
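Cultured in 96-well plates, cells were exposed to test compound for 48 hours across five concentrations. GI50 is the concentration that inhibits growth by half. TGI denotes the concentration required for complete inhibition of growth.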

Legend:
Experiment in all cases: NCI-60 cell line screen, 48 h
A549 NSCLC = system: A549 NSCLC
CAKI-1 renal = system: CAKI-1 renal
EKVX NSCLC = system: EKVX NSCLC
HCC-2998 colon = system: HCC-2998 colon
HOP-62 NSCLC = system: HOP-62 NSCLC
OVCAR-3 ovarian = system: OVCAR-3 ovarian
SF-268 CNS = system: SF-268 CNS
SF-295 CNS = system: SF-295 CNS
SK-OV-3 ovarian = system: SK-OV-3 ovarian

Structure (SMILES) | GI50 (A549 NSCLC) [nM] | TGI (A549 NSCLC) [µM] | GI50 (CAKI-1 renal) [nM] | TGI (CAKI-1 renal) [µM] | GI50 (EKVX NSCLC) [µM] | TGI (EKVX NSCLC) [µM] | GI50 (HCC-2998 colon) [nM] | TGI (HCC-2998 colon) [µM] | GI50 (HOP-62 NSCLC) [nM] | TGI (HOP-62 NSCLC) [µM] | GI50 (OVCAR-3 ovarian) [nM] | TGI (OVCAR-3 ovarian) [µM] | GI50 (SF-268 CNS) [nM] | TGI (SF-268 CNS) [µM] | GI50 (SF-295 CNS) [nM] | TGI (SF-295 CNS) [µM] | GI50 (SK-OV-3 ovarian) [nM] | TGI (SK-OV-3 ovarian) [µM]
CC[C@@]1(O)C(=O)OCc2c1cc1n(c2=O)Cc2cc3c([N+](=O)[O-])c(O)ccc3nc2-1 | 426 | 18.3 | 86.4 | 8.47 | 13.3 | > 100 | 2020 | 13.1 | 26 | 0.0964 | 1600 | 8.26 | 73 | > 22.3 | 155 | 2.2 | 614 | 25
CN1CCN2c3ccccc3CC(C#N)(C#N)C2C1 (stereo unspecified) |  | > 100 |  | > 100 |  | > 100 |  | > 100 |  |  |  | > 100 |  | > 100 |  | > 100 |  | > 100
CN(C(=N)c1ccccc1)c1ccccc1 |  | > 100 |  |  |  | > 100 |  | > 100 |  |  |  | > 100 |  |  |  | > 100 |  | > 100
CC(C)(C)c1cc(O)c2c(c1O)C(=O)CCC2 |  | > 100 |  | 82.3 |  | > 100 |  | > 100 |  | 91.9 |  | 76.5 |  |  |  | 99.2 |  | > 100
COC(=O)CCC(=O)Nc1cccc(C(F)(F)F)c1 |  | > 100 |  | > 100 |  | > 100 |  | > 100 |  | > 100 |  | > 100 |  | > 100 |  | > 100 |  | > 100
Cc1ccc2oc(=O)cc(CC(=O)O)c2c1 |  | > 100 |  | > 100 |  | > 100 |  | > 100 |  | > 100 |  | > 100 |  | > 100 |  | > 100 |  | > 100
O=C1C[C@@H]2[C@@H](C=CC23CC3)N1O |  | > 100 |  | > 100 |  | > 100 |  | > 100 |  | > 100 |  |  |  | > 100 |  | > 100 |  | > 100
C=C(c1ccc(OC)c(/C=C/C(=O)c2cc(OC)c(OC)c(OC)c2)c1)c1cc(OC)c(OC)c(OC)c1 | 1810 | 4.51 | 1280 | 10.5 | 2.23 | 9.74 | 1840 | 3.37 | 2270 | 6.68 | 1530 | 3.18 | 1460 | 3.83 | 2900 | 14.9 | 3600 | > 100
Nc1nc(=O)c2[nH]cnc2n1O |  | > 100 |  |  |  | > 100 |  |  |  | > 100 |  | > 100 |  | > 100 |  | > 100 |  | > 100
CCOC(=O)NC(=O)c1cn(CC(=O)NCC(=O)NCC(=O)N2CCN(CCn3c(C)nc(C(N)=O)c3N)CC2)c(=O)[nH]c1=O |  | > 100 |  | > 100 |  |  |  | > 100 |  | > 100 |  |  |  | > 100 |  | > 100 |  | > 100
NC(N)=NS(=O)(=O)c1ccc(NC(=O)c2cccn3c(=O)c4ccccc4nc23)cc1 |  | > 100 |  | > 100 |  | > 100 |  | > 100 |  | > 100 |  | > 100 |  | > 100 |  | > 100 |  | > 100
COc1ccc(C(=C(C#N)C#N)c2ccc(OC)cc2)cc1 |  | > 100 |  | > 100 |  | > 100 |  | > 100 |  | > 100 |  | > 100 |  | > 100 |  | > 100 |  | 
OCC(O)C(O)C(O)c1nn[nH]n1 (stereo unspecified) |  |  |  | > 100 |  | > 100 |  |  |  | > 100 |  | > 100 |  | > 100 |  | > 100 |  | > 100
O=C1C2c3[nH]c4ccccc4c3C3CCC(c4ccccc4)CC3C2C(=O)N1c1ccccc1 (stereo unspecified) |  | > 100 |  |  |  | > 100 |  | > 100 |  |  |  | > 100 |  | > 100 |  | > 100 |  | > 100
Clc1cc(Cl)cc(C2SCc3nc4ccccc4n32)c1 (stereo unspecified) |  | 76.1 |  | 44.2 |  | 70.8 |  |  |  |  |  | 38.3 |  | 59.3 |  | 29.3 |  | 63.8
N#CC1=C(c2ccccc2)NN(Cc2ccccc2)C(c2ccc(Cl)cc2)CC1=O (stereo unspecified) |  | 62.3 |  | 76.7 |  |  |  |  |  |  |  |  |  | > 100 |  | > 100 |  | 
O=c1/c(=C/c2ccccc2O)sc2nc3ccccc3n12 |  | > 100 |  | > 100 |  | 82 |  | > 100 |  |  |  | 98.7 |  | 56.7 |  | > 100 |  | 
CC(=O)O[C@H]1CC[C@@]2(C)C(=CC[C@@H]3C2CC[C@]2(C)C(=O)NC(=O)CC32)C1 (stereo partly specified) |  | > 100 |  | > 100 |  | > 100 |  | > 100 |  | > 100 |  |  |  | > 100 |  | > 100 |  | > 100
COc1cccc(-c2cc(=O)c3cc(C)c(C)c(C(=O)O)c3o2)c1 |  | > 100 |  |  |  | > 100 |  | > 100 |  | > 100 |  | > 100 |  | > 100 |  | > 100 |  | > 100
C=CCNC(=O)ON1C(=O)CCC1=O |  | > 100 |  |  |  | > 100 |  | > 100 |  | > 100 |  | > 100 |  | > 100 |  | > 100 |  | > 100
